Data as given in ChEMBL document CHEMBL1201862, “PubChem BioAssay data set” (2004).
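Tested at 5 concentrations; 48 h exposure; 96-well plates; endpoints linearly interpolated, else capped at highest concentration. The concentration for 50% growth inhibition is given as GI50.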 Activity calls are given as the source filed them. No stated cut-off is given here; in the data, active = GI50 up to about 1.1 µM and inactive = higher.

Legend:
Experiment in all cases: inhibition of tumour cell growth, NCI panel, 48 h
[1] = test system: ACHN
[2] = test system: Hs-578T
[3] = test system: OVCAR-4
[4] = test system: UACC-257
[5] = test system: SNB-19
[6] = test system: UACC-62
[7] = test system: HCT-116
[8] = test system: NCI/ADR-RES
[9] = test system: SK-MEL-5
[10] = test system: LOX IMVI
[11] = test system: M14
[12] = test system: U-251
[13] = test system: HL-60
[14] = test system: SK-MEL-2
[15] = test system: SNB-75
[16] = test system: A549
[17] = test system: SF-539
[18] = test system: K562
[19] = test system: NCI-H23
[20] = test system: SN12C
[21] = test system: HCC 2998
[22] = test system: SF-268
[23] = test system: MDA-N
[24] = test system: NCI-H460
[25] = test system: TK-10
[26] = test system: UO-31
[27] = test system: HCT-15
[28] = test system: OVCAR-5
[29] = test system: IGROV-1
[30] = test system: Malme-3M
[31] = test system: SR
[32] = test system: PC-3
[33] = test system: NCI-H522
[34] = test system: EKVX
[35] = test system: SK-MEL-28
[36] = test system: SF-295
[37] = test system: KM12
[38] = test system: COLO 205
[39] = test system: BT-549
[40] = test system: CAKI-1
[41] = test system: MCF7
[42] = test system: SK-OV-3
[43] = test system: A498
[44] = test system: MDA-MB-435
[45] = test system: 786-0
[46] = test system: SW-620
[47] = test system: RXF 393
[48] = test system: DU-145
[49] = test system: OVCAR-8
[50] = test system: OVCAR-3
[51] = test system: HT-29
[52] = test system: MDA-MB-231
[53] = test system: MOLT-4
[54] = test system: CCRF-CEM
[55] = test system: T47D
[56] = test system: NCI-H226
[57] = test system: HOP-62
[58] = test system: HOP-92
[59] = test system: RPMI-8226

Q: Which GI50 [1] does the source give for Cc1nn(C(=O)c2ccccc2O)c2c1C(c1ccc(O)cc1)SC(=N)N2 (stereo not drawn) here?
A: 0.951 µM (active)

Q: And the GI50 [2]?
A: 0.449 µM (active)

Q: What about the GI50 [3] of the same compound?
A: > 2.12 µM (inactive)

Q: And the GI50 [4]?
A: 0.805 µM (active)

Q: And the GI50 [5]?
A: 8.41 µM (inactive)

Q: What about the GI50 [6] of the same compound?
A: 0.929 µM (active)

Q: What about the GI50 [7] of the same compound?
A: 1.49 µM (inactive)

Q: What about the GI50 [8] of the same compound?
A: 2.03 µM (inactive)

Q: And the GI50 [9]?
A: > 3.08 µM (inactive)

Q: What about the GI50 [10] of the same compound?
A: 1.36 µM (inactive)

Q: What about the GI50 [11] of the same compound?
A: > 2.86 µM (inactive)

Q: And the GI50 [12]?
A: 1.37 µM (inactive)

Q: And the GI50 [13]?
A: > 2.03 µM (inactive)

Q: And the GI50 [14]?
A: > 2.65 µM (inactive)

Q: And the GI50 [15]?
A: 0.74 µM (active)

Q: And the GI50 [16]?
A: 1.26 µM (inactive)

Q: What about the GI50 [17] of the same compound?
A: 1.36 µM (inactive)

Q: And the GI50 [18]?
A: 0.955 µM (active)

Q: What about the GI50 [19] of the same compound?
A: 1.83 µM (inactive)

Q: What about the GI50 [20] of the same compound?
A: 1.79 µM (inactive)

Q: What about the GI50 [21] of the same compound?
A: > 8.91 µM (inactive)

Q: And the GI50 [22]?
A: 3.45 µM (inactive)

Q: And the GI50 [23]?
A: 1.67 µM (inactive)

Q: What about the GI50 [24] of the same compound?
A: 0.359 µM (active)

Q: What about the GI50 [25] of the same compound?
A: > 2.52 µM (inactive)

Q: And the GI50 [26]?
A: 7.55 µM (inactive)

Q: What about the GI50 [27] of the same compound?
A: 1.75 µM

Q: And the GI50 [28]?
A: > 6.35 µM (inactive)

Q: What about the GI50 [29] of the same compound?
A: 2.08 µM (inactive)

Q: What about the GI50 [30] of the same compound?
A: 0.601 µM (active)

Q: And the GI50 [31]?
A: 1.44 µM (inactive)

Q: What about the GI50 [32] of the same compound?
A: > 3.03 µM (inactive)

Q: What about the GI50 [33] of the same compound?
A: > 3.29 µM (inactive)

Q: What about the GI50 [34] of the same compound?
A: > 4 µM (inactive)

Q: What about the GI50 [35] of the same compound?
A: > 10 µM (inactive)

Q: What about the GI50 [36] of the same compound?
A: 1.26 µM (inactive)

Q: What about the GI50 [37] of the same compound?
A: > 2.15 µM (inactive)

Q: And the GI50 [38]?
A: > 6.93 µM (inactive)

Q: And the GI50 [39]?
A: > 10 µM (inactive)

Q: And the GI50 [40]?
A: > 2.32 µM (inactive)

Q: And the GI50 [41]?
A: > 2.36 µM (inactive)

Q: What about the GI50 [42] of the same compound?
A: 2.25 µM (inactive)

Q: And the GI50 [43]?
A: 3.06 µM (inactive)

Q: What about the GI50 [44] of the same compound?
A: 1.21 µM (inactive)

Q: And the GI50 [45]?
A: > 2.56 µM (inactive)

Q: What about the GI50 [46] of the same compound?
A: > 6.64 µM (inactive)

Q: And the GI50 [47]?
A: 1.23 µM (inactive)

Q: And the GI50 [48]?
A: 1.67 µM (inactive)

Q: What about the GI50 [49] of the same compound?
A: > 2.47 µM (inactive)

Q: And the GI50 [50]?
A: > 2.66 µM (inactive)

Q: What about the GI50 [51] of the same compound?
A: > 6.9 µM (inactive)

Q: And the GI50 [52]?
A: > 3.18 µM (inactive)

Q: What about the GI50 [53] of the same compound?
A: 1.33 µM (inactive)

Q: What about the GI50 [54] of the same compound?
A: 1.7 µM (inactive)

Q: And the GI50 [55]?
A: 1.23 µM (inactive)

Q: What does the source list for CC(=O)OC1CCC2(C)C(=CCC3C2CCC2(C)C(C(C)C(=O)O)CCC32)C1 (stereo not drawn)?
A: GI50 [1]: 59.7 µM (inactive); GI50 [2]: > 100 µM (inactive); GI50 [3]: > 100 µM (inactive); GI50 [4]: > 100 µM (inactive); GI50 [5]: > 100 µM (inactive); GI50 [6]: > 100 µM (inactive); GI50 [7]: 75.9 µM (inactive); GI50 [8]: > 100 µM (inactive); GI50 [9]: 70.6 µM (inactive); GI50 [10]: > 100 µM (inactive); GI50 [11]: > 100 µM (inactive); GI50 [12]: 88.9 µM (inactive); GI50 [14]: > 100 µM (inactive); GI50 [15]: > 100 µM (inactive); GI50 [16]: 54.8 µM (inactive); GI50 [17]: > 100 µM (inactive); GI50 [18]: > 100 µM (inactive); GI50 [19]: > 100 µM (inactive); GI50 [20]: > 100 µM (inactive); GI50 [21]: 57 µM (inactive); GI50 [22]: > 100 µM (inactive); GI50 [23]: > 100 µM (inactive); GI50 [24]: 63 µM (inactive); GI50 [25]: > 100 µM (inactive); GI50 [26]: 92 µM (inactive); GI50 [27]: 78.5 µM; GI50 [28]: > 100 µM (inactive); GI50 [56]: > 100 µM (inactive); GI50 [29]: > 100 µM (inactive); GI50 [30]: > 100 µM (inactive); GI50 [31]: > 100 µM (inactive); GI50 [32]: > 100 µM (inactive); GI50 [33]: 58.6 µM (inactive); GI50 [34]: 56.9 µM (inactive); GI50 [35]: > 100 µM (inactive); GI50 [36]: > 100 µM (inactive); GI50 [37]: 84.7 µM (inactive); GI50 [57]: > 100 µM (inactive); GI50 [38]: 39.9 µM (inactive); GI50 [39]: > 100 µM (inactive); GI50 [40]: > 100 µM (inactive); GI50 [41]: 51.1 µM (inactive); GI50 [42]: > 100 µM (inactive); GI50 [43]: 59.7 µM (inactive); GI50 [44]: > 100 µM (inactive); GI50 [45]: > 100 µM (inactive); GI50 [46]: > 100 µM (inactive); GI50 [47]: 69.5 µM (inactive); GI50 [48]: > 100 µM (inactive); GI50 [58]: > 100 µM (inactive); GI50 [49]: > 100 µM (inactive); GI50 [50]: > 100 µM (inactive); GI50 [51]: 48.6 µM (inactive); GI50 [52]: > 100 µM (inactive); GI50 [53]: > 100 µM (inactive); GI50 [54]: > 100 µM (inactive); GI50 [59]: > 100 µM (inactive); GI50 [55]: > 100 µM (inactive)

Q: For Cc1cccc(NC(=S)NNC(=O)c2cc(-c3ccccc3)nc3ccccc23)c1, which GI50 [1] is on record?
A: 36.1 µM (inactive)

Q: What about the GI50 [2] of the same compound?
A: 37 µM (inactive)

Q: And the GI50 [3]?
A: 57.9 µM (inactive)

Q: And the GI50 [4]?
A: 33.4 µM (inactive)

Q: And the GI50 [5]?
A: 37.8 µM (inactive)

Q: And the GI50 [6]?
A: 38.5 µM (inactive)

Q: And the GI50 [7]?
A: 20.8 µM (inactive)

Q: And the GI50 [8]?
A: 36.7 µM (inactive)

Q: And the GI50 [9]?
A: 19.9 µM (inactive)

Q: And the GI50 [11]?
A: 35 µM (inactive)

Q: And the GI50 [12]?
A: 30.1 µM (inactive)

Q: And the GI50 [14]?
A: 21.8 µM (inactive)

Q: And the GI50 [15]?
A: 36.6 µM (inactive)

Q: What about the GI50 [16] of the same compound?
A: 25.4 µM (inactive)

Q: What about the GI50 [17] of the same compound?
A: 21.8 µM (inactive)

Q: What about the GI50 [18] of the same compound?
A: 41.5 µM (inactive)

Q: What about the GI50 [19] of the same compound?
A: 27.9 µM (inactive)

Q: And the GI50 [20]?
A: 40.1 µM (inactive)

Q: What about the GI50 [21] of the same compound?
A: 25.1 µM (inactive)

Q: And the GI50 [22]?
A: 42 µM (inactive)

Q: What about the GI50 [23] of the same compound?
A: 45.7 µM (inactive)

Q: What about the GI50 [24] of the same compound?
A: 30.9 µM (inactive)

Q: And the GI50 [25]?
A: 40.4 µM (inactive)

Q: What about the GI50 [26] of the same compound?
A: 23.1 µM (inactive)

Q: And the GI50 [27]?
A: 36.7 µM

Q: What about the GI50 [28] of the same compound?
A: 35.5 µM (inactive)

Q: And the GI50 [56]?
A: 34.4 µM (inactive)

Q: What about the GI50 [29] of the same compound?
A: 33.6 µM (inactive)

Q: What about the GI50 [30] of the same compound?
A: 25 µM (inactive)

Q: And the GI50 [31]?
A: 17.9 µM (inactive)

Q: What about the GI50 [32] of the same compound?
A: 27.5 µM (inactive)

Q: And the GI50 [33]?
A: 26.2 µM (inactive)

Q: What about the GI50 [35] of the same compound?
A: 38.4 µM (inactive)

Q: What about the GI50 [37] of the same compound?
A: 31.8 µM (inactive)

Q: What about the GI50 [57] of the same compound?
A: 32 µM (inactive)

Q: And the GI50 [38]?
A: 19.5 µM (inactive)

Q: And the GI50 [39]?
A: 47.9 µM (inactive)

Q: What about the GI50 [40] of the same compound?
A: 32.7 µM (inactive)

Q: And the GI50 [41]?
A: 20.5 µM (inactive)

Q: What about the GI50 [42] of the same compound?
A: 25.6 µM (inactive)

Q: What about the GI50 [43] of the same compound?
A: 20.2 µM (inactive)

Q: And the GI50 [44]?
A: 28.4 µM (inactive)

Q: And the GI50 [45]?
A: 29.7 µM (inactive)

Q: What about the GI50 [46] of the same compound?
A: 36.3 µM (inactive)

Q: What about the GI50 [47] of the same compound?
A: 25.4 µM (inactive)

Q: What about the GI50 [48] of the same compound?
A: 34.4 µM (inactive)

Q: And the GI50 [58]?
A: 26.2 µM (inactive)

Q: What about the GI50 [49] of the same compound?
A: 39.8 µM (inactive)

Q: And the GI50 [50]?
A: 26.8 µM (inactive)

Q: What about the GI50 [51] of the same compound?
A: 34.7 µM (inactive)

Q: And the GI50 [52]?
A: 27.9 µM (inactive)

Q: And the GI50 [53]?
A: 27.5 µM (inactive)

Q: What about the GI50 [54] of the same compound?
A: 12.7 µM (inactive)

Q: And the GI50 [59]?
A: 30.1 µM (inactive)

Q: And the GI50 [55]?
A: 34.1 µM (inactive)
